PMC8592510 (CPT: Pharmacometrics & Systems Pharmacology, 2021)

Legend:
[1] = cited from earlier work
CYP3A = settings: cited from earlier work
[2] = type: in vivo, human; settings: covariate analysis, allometric scaling principles
[3] = Bayesian feedback population PK analyses of phase III data; type: in vivo; settings: human, plasma, oral
[4] = cited from earlier work; remark: listed apart in the source
[5] = cited from earlier work; remark: listed apart in the source
[6] = Logistic regression exposure-safety analyses; settings: alectinib 300 or 600 mg b.i.d.

## C[C@@H](Oc1cc(-c2cnn(C3CCNCC3)c2)cnc1N)c1c(Cl)ccc(F)c1Cl [crizotinib]
[1]; ALEX study
  Frequency of Grade ≥3 AEs and SAEs, crizotinib versus alectinib: more frequent

## CCc1cc2c(cc1N1CCC(N3CCOCC3)CC1)C(C)(C)c1[nH]c3cc(C#N)ccc3c1C2=O [alectinib]
CYP3A
  Enzyme involved in metabolism: CYP3A is the main enzyme
  First-pass metabolism by cytochrome P450 (CYP) 3A: limited
[2]
  Body weight effect on clearance and volume: significant body weight effect
[3]
  half-life: 34 h
[4]
  Lipophilicity: lipophilic
[1]; J-ALEX, ALEX and ALESIA
  Safety profile compared with crizotinib: favorable safety profile compared with crizotinib
[5]
  Blood-brain barrier penetration: can penetrate the blood–brain barrier
[6]
  Effect of Caverage on severity of the first event for SAEs or Grade ≥3 AEs: no apparent effect
[6]; J-ALEX, ALEX, ALESIA
  Relationship between Caverage and first occurrence of Grade ≥3 AEs: no significant relationship
  Relationship between combined alectinib and M4 molar concentration (Caverage) and first occurrence of SAEs: no significant relationship
